# Data published in patent US12247029B2, “Heterocyclic compounds as class II phosphoinositide 3-kinase inhibitors” (Forschungsverbund Berlin e.V., priority 2018, dated 2025).
# “Also recorded” adds a separate entry of the source. Like-named read-outs stand apart in the source and are kept apart here.
# Legend:
# [1] = system: eGFP-clathrin expressing Cos7 cells; assay: CCP dynamics by TIRF microscopy; format: cell-based; settings: treatment for 1 h, vs DMSO
# Experimental: (§1) FIG. 8. Inhibition of PI3KC2α in living cells upon treatment with C2a_inh1-3. (A) PI3KC2α inhibition impairs CCP dynamics analyzed by TIRF microscope. eGFP-clathrin expressing Cos7 cells were treated by DMSO or C2a_Inh3 for 1 h and imaged by TIRF microscope. […] (B) C2a_Inh3 treatment of eGFP-SNX9 AS OE HeLa cells. […] Scale bar, 10 μm or 2 μm (inset). (C) Quantification of the results depicted in B, indicating the percentage of cells containing membrane tubules (N=3, statistical analysis with one-way ANOVA, **** is for p<0.0001).
# To test if the validated compounds are cell membrane permeable and, thus, can be used as medicaments and in cell-based experiments, the inventors analyzed clathrin-mediated endocytosis of transferrin in the presence of PI3KC2α inhibitors or DMSO as a solvent control. […] Further, the inventors monitored the CCP dynamics in cells with PI3KC2α inhibitor (C2a_Inh3) treatment for 1 h.
# PI3KC2α Δ1-298 = PI3KC2α Δ1-298 (Homo sapiens (Human), UniProt O00443); assay: ADP-Glo kinase assay with purified PI3KC2α Δ1-298; format: biochemical
# Summary of the method: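 Purified human PI3KC2α Δ1-298 (10 ng/μl) with liver PI (200 μM) and ATP (40 μM), 20 min kinase reaction; ADP formed read by ADP-Glo luminescence after 40 min ATP depletion. Screening compounds at 10 μM; reactions lacking PI served as negative control.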
# [2] = system: commercially available lipid kinases and the related mTOR protein kinase; assay: In vitro kinase profiling at fixed 10 μM (lipid kinase panel, mTOR, general kinase panel); format: biochemical; settings: 10 μM compound; listed as C2a_Inh3
# Experimental: FIG. 7. In vitro kinase activity in presence of 10 μM compounds. (A-C) The specificity of initial screening hits and C2a_inh1-3 was validated by incubation with available lipid kinases. […] (D) Selectivity may be modulated by modifying the R11 substituent of Formula 1. […]
# We firstly analyzed the specificity of C2a_inh1 (dihydropteridinone derived compound) and other initial screening hits (eg. quinolone derived compound) in vitro. […]
# [3] = system: HeLa cells overexpressing SNX9 AS; assay: SNX9 AS membrane recruitment / tubulation; format: cell-based; settings: eGFP-SNX9 AS OE HeLa cells, vs DMSO
# Experimental: as §1
# SNX9 is a main effector protein of PI3KC2α dependent PI(3,4)P2 production. […] HeLa cells overexpressing SNX9 AS were treated with C2a_inh_3 or DMSO as a control.
# [4] = read-out: IC50 (PI3KC2α; ADP-Glo™ assay)
# Sequence of PI3KC2α Δ1-298 (O00443 299-1686): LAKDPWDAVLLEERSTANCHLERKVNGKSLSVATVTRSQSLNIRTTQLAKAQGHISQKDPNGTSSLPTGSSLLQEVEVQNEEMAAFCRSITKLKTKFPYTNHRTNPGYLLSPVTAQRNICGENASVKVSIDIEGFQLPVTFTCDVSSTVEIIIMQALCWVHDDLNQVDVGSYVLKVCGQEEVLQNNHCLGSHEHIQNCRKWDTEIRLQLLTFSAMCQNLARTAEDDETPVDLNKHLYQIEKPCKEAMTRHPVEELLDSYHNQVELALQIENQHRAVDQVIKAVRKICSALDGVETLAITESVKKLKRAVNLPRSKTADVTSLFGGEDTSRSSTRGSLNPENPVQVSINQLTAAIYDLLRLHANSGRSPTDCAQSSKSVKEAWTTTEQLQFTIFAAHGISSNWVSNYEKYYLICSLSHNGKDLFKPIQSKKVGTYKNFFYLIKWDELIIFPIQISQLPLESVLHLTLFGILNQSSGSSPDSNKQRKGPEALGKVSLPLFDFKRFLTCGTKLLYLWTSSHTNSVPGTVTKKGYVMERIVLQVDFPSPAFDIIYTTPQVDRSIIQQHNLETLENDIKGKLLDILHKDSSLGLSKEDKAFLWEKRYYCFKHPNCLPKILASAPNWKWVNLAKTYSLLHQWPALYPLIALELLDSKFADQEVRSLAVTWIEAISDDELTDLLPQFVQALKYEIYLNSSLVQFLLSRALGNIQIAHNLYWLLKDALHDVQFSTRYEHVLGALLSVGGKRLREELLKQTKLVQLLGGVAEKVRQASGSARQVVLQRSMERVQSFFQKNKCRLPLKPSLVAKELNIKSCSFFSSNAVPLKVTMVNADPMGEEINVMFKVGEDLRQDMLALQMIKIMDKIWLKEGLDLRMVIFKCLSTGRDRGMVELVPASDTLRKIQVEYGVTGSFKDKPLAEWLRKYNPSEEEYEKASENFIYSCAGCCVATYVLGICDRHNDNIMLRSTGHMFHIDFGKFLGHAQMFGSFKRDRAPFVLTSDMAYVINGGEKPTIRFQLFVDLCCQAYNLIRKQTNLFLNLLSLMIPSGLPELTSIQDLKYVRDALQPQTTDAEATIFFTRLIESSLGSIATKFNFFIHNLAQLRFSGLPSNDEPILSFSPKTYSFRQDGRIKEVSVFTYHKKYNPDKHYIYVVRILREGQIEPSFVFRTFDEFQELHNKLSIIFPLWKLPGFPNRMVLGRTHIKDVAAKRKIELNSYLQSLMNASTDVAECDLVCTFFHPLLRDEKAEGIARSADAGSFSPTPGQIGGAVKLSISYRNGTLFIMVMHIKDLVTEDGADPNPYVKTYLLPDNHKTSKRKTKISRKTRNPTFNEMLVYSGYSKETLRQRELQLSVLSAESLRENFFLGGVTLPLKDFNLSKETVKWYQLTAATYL
Compound,IC50 (PI3KC2α Δ1-298; [4]) [nM],other results
"O=C(CSc1nc2nccnc2c(=O)n1CCc1ccccc1)Nc1nccs1 [Example Compound 11, 2-((4-Oxo-3-phenethyl-3,4-dihydropteridin-2-yl)thio)-N-(thiazol-2-yl)acetamide]",100,"CCP lifetime (CCP dynamics) ([1]; listed as C2a_Inh3): increased CCP-lifetimes; CCP lifetime (CCP dynamics) ([1]; listed as C2a_Inh_3): increase of lifetime; IC50 (PI3KC2α Δ1-298; listed as C2a_Inh3, read-out: IC50 for PI3KC2α inhibition): 100 nM; specificity in kinase panel [2]: specifically inhibited class II PI3Ks; also recorded: relatively high off-targeting activity towards other class II kinase isoforms; SNX9 AS recruitment to membrane / membrane tubules ([3]; listed as C2a_Inh3): reduced the recruitment of SNX9 to the membrane; SNX9 AS recruitment to membrane / membrane tubules ([3]; listed as C2a_inh_3): remained largely cytosolic"
"CC(Sc1nc2nccnc2c(=O)n1CCc1cccc(F)c1)C(=O)Nc1nccs1 (stereo not drawn) [Example Compound 16, 2-((3-(3-Fluorophenethyl)-4-oxo-3,4-dihydropteridin-2-yl)thio)-N-(thiazol-2-yl)propanamide]",5200,"PI3KC2α inhibitory activity (in words, SAR) (PI3KC2α Δ1-298): did not disrupt the activity"
"COc1cccc(-c2csc(NC(=O)CSc3nc4nccnc4c(=O)n3CCc3ccccc3)n2)c1 [Example Compound 31, N-(4-(3-Methoxyphenyl)thiazol-2-yl)-2-((4-oxo-3-phenethyl-3,4-dihydropteridin-2-yl)thio)acetamide]",2400,
"O=C(CSc1nc2nccnc2c(=O)n1C1Cc2ccccc2C1)Nc1nccs1 [Example Compound 87, 2-((3-(2,3-Dihydro-1H-inden-2-yl)-4-oxo-3,4-dihydropteridin-2-yl)thio)-N-(thiazol-2-yl)acetamide]",170,
"O=C(CSc1nc2nccnc2c(=O)n1C1CCc2ccccc21)Nc1nccs1 (stereo not drawn) [Example Compound 19, 2-((3-(2,3-Dihydro-1H-inden-1-yl)-4-oxo-3,4-dihydropteridin-2-yl)thio)-N-(thiazol-2-yl)acetamide]",1600,
"O=C(CSc1nc2nccnc2c(=O)n1CCc1ccccc1)Nc1nc(-c2ccc(Cl)cc2)cs1 [Example Compound 49, N-(4-(4-Chlorophenyl)thiazol-2-yl)-2-((4-oxo-3-phenethyl-3,4-dihydropteridin-2-yl)thio)acetamide]",7100,
"CS(=O)(=O)Nc1cccc(-c2csc(NC(=O)CSc3nc4nccnc4c(=O)n3CCc3ccccc3)n2)c1 [Example Compound 12, N-(4-(3-(Methylsulfonamido)phenyl)thiazol-2-yl)-2-((4-oxo-3-phenethyl-3,4-dihydropteridin-2-yl)thio)acetamide]",130,
"O=c1c2nccnc2nc(SCc2ncc[nH]2)n1CCc1ccccc1 [Example Compound 76, 2-(((1H-Imidazol-2-yl)methyl)thio)-3-phenethylpteridin-4(3H)-one]",22000,
"O=C(CSc1nc2nccnc2c(=O)n1CCc1ccccc1)Nc1nc(-c2ccsc2)cs1 [Example Compound 23, 2-((4-Oxo-3-phenethyl-3,4-dihydropteridin-2-yl)thio)-N-(4-(thiophen-3-yl)thiazol-2-yl)acetamide]",760,
"CNC(=O)c1ccc(-n2c(SCC(=O)Nc3nccs3)nc3nccnc3c2=O)cc1 [Example Compound 81, 4 N-Methyl-4-(4-oxo-2-((2-oxo-2-(thiazol-2-ylamino)ethyl)thio)pteridin-3(4H)-yl)benzamide]",620,
"CS(=O)(=O)c1ccc(-c2csc(NC(=O)CSc3nc4nccnc4c(=O)n3CCc3ccccc3)n2)cc1 [Example Compound 53, N-(4-(4-(Methylsulfonyl)phenyl)thiazol-2-yl)-2-((4-oxo-3-phenethyl-3,4-dihydropteridin-2-yl)thio)acetamide]",1300,
